Measured values reported in patent publication US5883294A, “Selective thyroid hormone analogs” (The Regeants of the University of California, priority 1997, dated 1999).

Biological target: T1, TR α1 (Rattus norvegicus, UniProt P63059)
T1 construct: made in house; host or cells: E. coli
Assay: Receptor Binding Assays of TR Ligands ([125I]T3 displacement), TR α1

T1 sequence (P63059 other isoform, or with tags, fused parts or gaps): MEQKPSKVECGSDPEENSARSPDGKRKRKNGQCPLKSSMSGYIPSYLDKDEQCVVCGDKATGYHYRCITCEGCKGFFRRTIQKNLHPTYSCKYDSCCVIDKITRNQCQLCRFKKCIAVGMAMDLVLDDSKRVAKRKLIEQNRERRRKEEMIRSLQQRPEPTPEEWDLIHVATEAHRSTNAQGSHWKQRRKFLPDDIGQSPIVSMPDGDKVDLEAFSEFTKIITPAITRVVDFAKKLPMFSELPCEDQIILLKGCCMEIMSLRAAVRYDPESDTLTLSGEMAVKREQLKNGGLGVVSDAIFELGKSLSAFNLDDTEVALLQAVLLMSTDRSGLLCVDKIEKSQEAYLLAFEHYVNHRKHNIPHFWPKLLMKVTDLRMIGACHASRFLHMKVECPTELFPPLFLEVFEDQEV

**Q.** Which IC50 does the source give for `Cc1cc(OCC(=O)O)cc(C)c1Cc1ccc(O)c(C(C)C)c1` [GC1, [3,5-dimethyl-4-(4'-hydroxy-3'-isopropylbenzyl)-phenoxy] acetic acid] here?
**A.** Its IC50 is 20 nM.
